Like-named read-outs stand apart in the source and are kept apart here. Where a SMILES comes first, the peptide text is derived from it. [ ]: non-standard residue; d: D form. The star is where a group is joined. Nva = CCC[C@H](N)C(=O)O; Cbz = O=C(OCc1ccccc1)*; OtBu = CC(C)(C)O*
Experiments:
mouse BMP2 promoter = assay: High throughput screen (ABA assay): BMP2 promoter-luciferase reporter in 2T3-BMP-2-LUC osteoblast cells; type: cell-based; conditions: for EC50: read-out: Luciferase Activity (ED50-μM); for activity in the high through-put assay compared with simvastatin: Example 6
Description: 1995, the entire contents of which are incorporated herein by reference. This assay is also described as a portion of a study of immortalized murine osteoblasts (derived from a mouse expressing a transgene composed of a BMP2 promoter driving expression of T-antigen) in Ghosh-Choudhery, N., et al., Endocrinology (1996) 137:331-39. In this study, the immortalized cells were stably transfected with a plasmid containing a luciferase reporter gene driven by a mouse BMP2 promoter (−2736/114 bp), and responded in a dose-dependent manner to recombinant human BMP2.
Briefly, the assay utilizes cells transformed permanently or transiently with constructs in which the promoter of a bone morphogenetic protein, specifically BMP2 or BMP4, is coupled to a reporter gene, typically luciferase. These transformed cells are then evaluated for the production of the reporter gene product; compounds that activate the BMP promoter will drive production of the reporter protein, which can be readily assayed. Many thousands of compounds have been subjected to this rapid screening technique, and only a very small percentage are able to elicit a level of expression of reporter gene 5-fold greater than that produced by vehicle. […] The active compounds (“BMP promoter-active compounds” or “active compounds”) are useful in promoting bone or cartilage growth, and thus in the treatment of vertebrates in need of bone or cartilage growth.
Thousands of compounds have been tested in the assay system set forth in U.S. Ser. No. 08/458,434, filed 2 Jun. 1995, and incorporated herein by reference. […] In this screen, the standard positive control was the compound 59-0008 (also denoted “OS8”), which is of the formula: [drawing 22]
In more detail, the 2T3-BMP-2-LUC cells, a stably transformed osteoblast cell line described in Ghosh-Choudhury et al. Endocrinology (1996) 137:331-39, referenced above, was employed. The cells were cultured using α-MEM, 10% FCS with 1% penicillin/streptomycin and 1% glutamine (“plating medium”), and were split 1:5 once per week. For the assay, the cells were resuspended in a plating medium containing 4% FCS, plated in microtiter plates at a concentration of 5×10^3 cells (in 50 μl)/well, and incubated for 24 hours at 37° C. in 5% CO2. To initiate the assay, 50 μl of the test compound or the control in DMSO was added at 2× concentration to each well, so that the final volume was 100 μl. The final serum concentration was 2% FCS, and the final DMSO concentration was 1%. Compound 59-0008 (10 μM) was used as a positive control.
The treated cells were incubated for 24 hours at 37° C. and 5% CO2. The medium was then removed, and the cells were rinsed three times with PBS. After removal of excess PBS, 25 μl of 1× cell culture lysing reagent (Promega #E153A) was added to each well and incubated for at least ten minutes. Optionally, the plates/samples could be frozen at this point. To each well was added 50 μl of luciferase substrate (Promega #E152A; 10 ml Promega luciferase assay buffer per 7 mg Promega luciferase assay substrate). Luminescence was measured on an automated 96-well luminometer, and was expressed as either picograms of luciferase activity per well or as picograms of luciferase activity per microgram of protein.
Accordingly, other tested compounds can be evaluated at various concentrations, and the results compared to the results obtained for 59-0008 at 10 μM (which value would be normalized to 100). Alternatively, the reactivity of a compound to be tested can be compared directly to a negative control containing no compound.

[1] = target: T1, 20S thermophila proteasome (Methanosarcina thermophila, UniProt Q9P992); assay: biochemical
T1 construct: purchased CalBiochem, San Diego, Calif
T1 sequence (Q9P992 10-210): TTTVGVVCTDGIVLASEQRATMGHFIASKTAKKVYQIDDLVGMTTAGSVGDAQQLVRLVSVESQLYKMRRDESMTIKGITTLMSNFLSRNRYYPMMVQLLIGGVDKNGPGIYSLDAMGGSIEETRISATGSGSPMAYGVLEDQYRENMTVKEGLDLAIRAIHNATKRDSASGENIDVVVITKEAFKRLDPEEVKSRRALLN
T1 sequence (Q59565 1-247 partner): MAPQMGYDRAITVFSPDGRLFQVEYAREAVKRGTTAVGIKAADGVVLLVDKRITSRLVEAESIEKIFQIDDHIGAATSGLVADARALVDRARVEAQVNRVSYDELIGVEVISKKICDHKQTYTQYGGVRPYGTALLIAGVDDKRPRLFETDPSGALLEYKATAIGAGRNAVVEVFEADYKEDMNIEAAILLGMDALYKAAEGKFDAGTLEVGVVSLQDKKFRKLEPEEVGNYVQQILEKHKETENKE
Description: The assay involves incubating the potential inhibitor with 20S thermophila proteasomes which, in purified form, are commercially available, with a fluorogenic peptide substrate. The presence of an inhibitor will reduce the amount of fluorescence generated by the action of the proteasome fraction on the fluorogenic peptide. This assay is described in further detail in Coux, O., et al., N Rev Biochem (1996) 65:801; Adams, J., et al., Cancer Res (1999) 59:2615; and Craiu, A., et al., J Biol Chem (1997) 272:13437. Further reports are set forth in Hilt, W., et al., Trans Biochem Sci (1996) 21:96; Peters, J., Trends Biochem Sci (1994) 19:377; Maupin-Furlow, J. A., et al., J Biol Chem (1995) 270:28617; and Jensen, T. J., et al., Cell (1995) 83:129. Fluorogenic substrates and purified proteasomes are available, for example, from CalBiochem, San Diego, Calif.
Purified 20S thermophila proteasomes and the fluorogenic peptide substrate Suc-Leu-Leu-Val-Tyr-AMC (SEQ ID NO:3) are available from CalBiochem, San Diego, Calif. Briefly, serial dilutions of the inhibitor to be tested were mixed with proteasome solution at a concentration of proteasome of 0.01 mg/ml. After 30 min incubation at 37° C., substrate solution at a final concentration of 25-30 μg/ml was added and the mixture incubated at 37° C. and then read at 15 min, 30 min, and 60 min in a Fluoroscan instrument. The percentage diminution in fluorescence in the presence as compared to the absence of inhibitor is then calculated.

hair follicles = assay: Induction of anagen in hair follicles in vivo (Example 12); set-up: species or system C57 black mice; conditions: for hair follicle differentiation in vivo: examined 16 days later
Description: Inhibitors of the proteasomal chymotrypsin-like activity were treated for their capacity to induce transit of hair follicles into anagen in vivo in C57 black mice eight weeks of age.

[2] = read-out: Proteasome Activity (ED50-μM)
[3] = read-out: % Proteasomal Activity

Row | Compound | response in the high throughput luciferase screen (mouse BMP2 promoter) | EC50 (mouse BMP2 promoter; Mus musculus, Osteoblast) | EC50 [1, 2] | remaining activity at 0.002 µM [1, 3] | remaining activity at 0.004 µM [1, 3] | remaining activity at 0.008 µM [1, 3] | remaining activity at 0.016 µM [1, 3] | remaining activity at 0.032 µM [1, 3] | remaining activity at 0.062 µM [1, 3] | remaining activity at 0.125 µM [1, 3] | remaining activity at 0.25 µM [1, 3] | remaining activity at 0.5 µM [1, 3] | Luciferase activity/well (mouse BMP2 promoter; dose 0.000625 μM) | Luciferase activity/well (mouse BMP2 promoter; dose 0.00125 μM) | Luciferase activity/well (mouse BMP2 promoter; dose 0.0025 μM) | Luciferase activity/well (mouse BMP2 promoter; dose 0.005 μM) | Luciferase activity/well (mouse BMP2 promoter; dose 0.01 μM) | Luciferase activity/well (mouse BMP2 promoter; dose 0.02 μM) | Luciferase activity/well (mouse BMP2 promoter; dose 0.04 μM) | Luciferase activity/well (mouse BMP2 promoter; dose 0.08 μM) | further results
1 | CCC[C@@H](C=O)NC(=O)[C@H](CC(C)C)NC(=O)[C@H](CC(C)C)NC(=O)OCc1ccccc1 [MG-115, N-carbobenzoyl-Leu-Leu-Nva-CHO] (Cbz-Leu-Leu-[Nva]-aldehyde) | high activity | 2 µM | 1 µM |  |  |  |  |  |  |  |  |  |  |  |  |  |  |  |  |  | 
2 | CC(C)C[C@@H](C=O)NC(=O)[C@@H](CC(C)C)NC(=O)[C@H](CC(C)C)NC(=O)OCc1ccccc1 [MG-132, N-carbobenzoyl-Leu-Leu-Leu-CHO] (Cbz-Leu-[dL]-Leu-aldehyde) | high activity | 0.25 µM | 0.3 µM | 101% | 99% | 101% | 100% | 98% | 90% | 87% | 73% | 57% |  |  |  |  |  |  |  |  | remaining activity at 1 µM [1, 3]: 44%; remaining activity at 2 µM [1, 3]: 19%
3 | CC[C@H](C)[C@H](NC(=O)[C@H]([C@@H](C)CC)N(C)C(C)=O)C(=O)N[C@H](C(=O)N[C@@H](CC(C)C)C(=O)[C@@]1(C)CO1)[C@@H](C)O [Epoxomicin] |  |  |  |  |  |  |  |  |  |  |  |  | 0.07 | 0.07 | 0.08 | 0.10 | 0.14 | 0.17 | 0.20 | 0.21 | activity in the high through-put assay compared with simvastatin (mouse BMP2 promoter): more active than simvastatin; IC50 [1]: ~60 nM; hair follicle differentiation in vivo (hair follicles; dose not given, subcutaneously in the scalp daily for 5 days): increased hair follicle differentiation in vivo
4 | CC[C@H](C)[C@H](NC(=O)OCc1ccccc1)C(=O)N[C@@H](CCC(=O)OC(C)(C)C)C(=O)N[C@@H](C)C(=O)N[C@H](C=O)CC(C)C [PSI, N-carbobenzoyl-Ile-Glu-(OtBu)-Ala-Leu-CHO] (Cbz-IE(OtBu)AL-aldehyde) |  | 0.05 µM |  | 100% | 95% | 94% | 86% | 76% | 54% | 30% | 11% | 6% | 0.07 | 0.08 | 0.07 | 0.08 | 0.08 | 0.09 | 0.12 | 0.18 | activity in the high through-put assay compared with simvastatin (mouse BMP2 promoter): more active than simvastatin; EC50 [1]: 0.035 µM; IC50 [1]: ~60 nM; remaining activity at 1 µM [1, 3]: 5%; hair follicle differentiation in vivo (hair follicles; 5 mg/kg/day subcutaneously in the scalp daily for 5 days): increased hair follicle differentiation in vivo
5 | CC(=O)N[C@@H](CSC(=O)[C@]1([C@@H](O)C(C)C)NC(=O)[C@H](C)[C@@H]1O)C(=O)O [Lactacystin, lactacystin] | Positive responses | 1 µM |  |  |  |  |  |  |  |  |  |  |  |  |  |  |  |  |  |  | EC50 [1]: 1.5 µM
6 | simvastatin | good response |  |  |  |  |  |  |  |  |  |  |  | 0.07 | 0.07 | 0.065 | 0.07 | 0.07 | 0.07 | 0.07 | 0.07 | Luciferase activity/well (mouse BMP2 promoter; dose 0.16 μM): 0.07; Luciferase activity/well (mouse BMP2 promoter; dose 0.32 μM): 0.07; Luciferase activity/well (mouse BMP2 promoter; dose 0.625 μM): 0.09; Luciferase activity/well (mouse BMP2 promoter; dose 1.25 μM): 0.11; Luciferase activity/well (mouse BMP2 promoter; dose 2.5 μM): 0.14; Luciferase activity/well (mouse BMP2 promoter; dose 5 μM): 0.15; Luciferase activity/well (mouse BMP2 promoter; dose 10 μM): 0.15; EC50 (mouse BMP2 promoter): 0.2 µM; effect on hair follicles (hair follicles; injected locally into the subcutaneous tissue in sufficient concentrations to cause local periosteal bone formation): had no effect on hair follicles

Reference: patent US6838436B1, “Inhibitors of proteasomal activity for stimulating bone growth” (Osteoscreen Inc., priority 1998, dated 2005)
